Measurements as given in US8415469B2, “Compounds and methods for kinase modulation, and indications therefor” (Plexxikon Inc., priority 2005, dated 2013).

How the values were obtained:
Assay type in all cases: biochemical
Btk = target: T1, Btk (Homo sapiens, UniProt Q06187); assay: Z'-Lyte FRET kinase assay (Invitrogen), Btk; details: read-out: IC50, activity toward kinase Btk
T1 construct: purchased Invitrogen (assay run by Invitrogen)

Zap70 = target: T2, Zap70 (Homo sapiens, UniProt P43403); assay: AlphaScreen kinase assay, Zap70; details: read-out: IC50, activity toward kinase Zap70
T2 construct: P1868.pFastBac1 ZAP70 D327-G606 HIS, WT; His7 (HHHHHHH) (C); made in house
T2 sequence (P43403 with tags, fused parts or gaps): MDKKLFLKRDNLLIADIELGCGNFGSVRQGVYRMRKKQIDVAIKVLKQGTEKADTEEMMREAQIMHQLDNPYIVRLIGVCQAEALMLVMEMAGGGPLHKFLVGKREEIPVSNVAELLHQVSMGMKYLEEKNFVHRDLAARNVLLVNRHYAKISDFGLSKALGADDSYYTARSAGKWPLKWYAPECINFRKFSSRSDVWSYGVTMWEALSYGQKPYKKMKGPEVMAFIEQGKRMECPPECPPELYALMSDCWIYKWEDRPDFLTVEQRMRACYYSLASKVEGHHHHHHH
Method in brief: (§1)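 Eight concentrations per compound (1:3 serial dilution of 20 mM DMSO stock) were tested. Read-out: AlphaScreen signal from phospho-antibody acceptor and streptavidin donor beads bound to biotinylated peptide substrate, reduced on kinase inhibition.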

Jnk1 = target: T3, Jnk1 (Homo sapiens, UniProt P45983); assay: AlphaScreen kinase assay, Jnk1; details: read-out: IC50, activity toward kinase Jnk1
T3 construct: purchased Upstate Biotechnology

c-Raf-1 = target: T4, c-Raf-1 (Homo sapiens, UniProt P04049); assay: AlphaScreen kinase assay, c-Raf-1; details: read-out: IC50, activity toward kinase c-Raf-1
T4 construct: purchased Upstate Biotechnology

B-Raf = target: T5, B-Raf (Homo sapiens, UniProt P15056); assay: AlphaScreen kinase assay, B-Raf; details: read-out: IC50, activity toward kinase B-Raf
T5 construct: purchased Upstate Biotechnology

Jnk2 = target: T6, Jnk2 (Homo sapiens, UniProt P45984); assay: AlphaScreen kinase assay, Jnk2; details: read-out: IC50, activity toward kinase Jnk2
T6 construct: purchased Roche Protein Expression Group (Indianapolis, IN)
Method in brief: as §1

Met = target: T7, Met (Homo sapiens, UniProt P08581); assay: AlphaScreen kinase assay, Met; details: read-out: IC50, activity toward kinase Met
T7 construct: P1818.pETN6 BI-PTP MET G1056-G1364-X WT; His6 (N); made in house; host or cells: E. coli (PTP1B co-expressed)
Method in brief: as §1

B-Raf V600E = target: T8, B-Raf V600E (Homo sapiens, UniProt P15056, V600E); assay: AlphaScreen kinase assay, B-Raf V600E; details: read-out: IC50, activity toward kinase B-Raf V600E
T8 construct: P4254. pFastBacBD-CDC37 BRAF D437-K722-X, V600E; His6 with pFastBac HT leader (TEV site) (N); made in house; host or cells: Sf9 (baculovirus; chaperone CDC37 co-expressed)
Experimental: AlphaScreen assays were done using compounds dissolved in DMSO to a concentration of 20 mM. The compounds were diluted accordingly to the desired final concentrations in each sample well, using 1:3 serial dilution for a total of 8 concentration points. Plates were prepared such that each kinase reaction is 20 μl in 1× kinase buffer, 5% DMSO and 10 μM ATP. After incubation of the kinase reaction for 1 hour at room temperature, 5 μl of donor beads in stop buffer (50 mM EDTA in 1× kinase buffer) was added, the sample was mixed and incubated for 20 minutes at room temperature before adding 5 μl of acceptor beads in stop buffer. The samples were incubated for 60 minutes at room temperature and the signal per well was read on AlphaQuest reader.

FGFR1 = target: T9, FGFR1 (Homo sapiens, UniProt P11362, C488A/C584S); assay: AlphaScreen kinase assay, FGFR1; details: read-out: IC50, activity toward kinase FGFR
T9 construct: P1351.pET N6 BI-PTP FGFR A458-E765-X C488A, C584S; made in house; host or cells: E. coli (PTP1B co-expressed)

Fms = target: T10, Fms (Homo sapiens, UniProt P07333); assay: AlphaScreen kinase assay, Fms; details: read-out: IC50, activity toward kinase Fms
T10 construct: purchased Upstate Biotechnology

TEC = target: T11, TEC (Homo sapiens, UniProt P42680); assay: AlphaScreen kinase assay, TEC; details: read-out: IC50, activity toward kinase TEC
T11 sequence (P42680 1-631): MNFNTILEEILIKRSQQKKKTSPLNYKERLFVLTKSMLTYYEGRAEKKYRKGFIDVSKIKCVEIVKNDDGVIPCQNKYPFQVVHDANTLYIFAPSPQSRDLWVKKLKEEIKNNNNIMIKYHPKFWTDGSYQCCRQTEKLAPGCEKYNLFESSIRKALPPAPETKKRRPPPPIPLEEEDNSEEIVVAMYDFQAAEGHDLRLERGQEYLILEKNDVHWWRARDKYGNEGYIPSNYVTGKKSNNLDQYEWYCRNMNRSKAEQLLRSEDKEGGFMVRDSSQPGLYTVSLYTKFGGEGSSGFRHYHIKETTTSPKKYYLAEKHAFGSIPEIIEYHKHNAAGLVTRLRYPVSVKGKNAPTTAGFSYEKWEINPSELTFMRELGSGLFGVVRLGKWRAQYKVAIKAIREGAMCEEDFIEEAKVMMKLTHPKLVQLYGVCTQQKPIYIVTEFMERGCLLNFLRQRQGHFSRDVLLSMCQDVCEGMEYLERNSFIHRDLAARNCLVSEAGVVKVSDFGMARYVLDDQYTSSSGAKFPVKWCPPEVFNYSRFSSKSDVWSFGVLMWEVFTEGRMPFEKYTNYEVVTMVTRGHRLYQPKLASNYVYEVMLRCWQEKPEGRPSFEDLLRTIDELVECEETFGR
Text: (§2) AlphaScreen assay was used to screen additional kinases. The assay is similarly dependent on the phosphorylation of a peptide substrate. In this assay, an antibody that recognizes phosphorylated substrate is bound to an acceptor bead. The peptide substrate is attached to biotin, which binds to a donor head that contains streptavidin. Thus phosphorylated substrate is bound by antibody and streptavidin, bringing the donor and acceptor heads into close proximity when kinase is not inhibited. The donor produces singlet oxygen which results in emission from the acceptor when they are in close proximity. Conversely, when kinase is inhibited, the donor and acceptor beads are not associated and the emission from the acceptor is reduced.
(§3) AlphaScreen assays were done using compounds dissolved in DMSO to a concentration of 20 mM. The compounds were diluted accordingly to the desired final concentrations in each sample well, using 1:3 serial dilution for a total of 8 concentration points.

Ret = target: T12, Ret (Homo sapiens, UniProt P07949); assay: AlphaScreen kinase assay, Ret; details: read-out: IC50, activity toward kinase Ret
T12 construct: P1378.pET-SF BI-PTP RET H661-R1012 HIS; made in house
T12 sequence (P07949 with tags, fused parts or gaps): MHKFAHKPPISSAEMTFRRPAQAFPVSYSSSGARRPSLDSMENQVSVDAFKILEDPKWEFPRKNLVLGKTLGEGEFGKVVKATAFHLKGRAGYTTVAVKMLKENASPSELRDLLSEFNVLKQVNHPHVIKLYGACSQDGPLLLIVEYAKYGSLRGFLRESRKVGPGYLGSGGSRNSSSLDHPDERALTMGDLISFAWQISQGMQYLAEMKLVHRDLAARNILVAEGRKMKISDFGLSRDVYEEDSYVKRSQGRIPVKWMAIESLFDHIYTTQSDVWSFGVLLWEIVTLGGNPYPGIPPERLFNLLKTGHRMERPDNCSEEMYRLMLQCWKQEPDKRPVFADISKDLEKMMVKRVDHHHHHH

Jnk3 = target: T13, Jnk3 (Homo sapiens, UniProt P53779); assay: AlphaScreen kinase assay, Jnk3; details: read-out: IC50, activity toward kinase Jnk3
T13 construct: purchased Upstate Biotechnology

Csk = Csk (Homo sapiens, UniProt P41240); assay: AlphaScreen kinase assay, Csk; details: read-out: IC50, activity toward kinase Csk
Text: as §2, §3

Src = target: T14, Src (Homo sapiens, UniProt P12931); assay: AlphaScreen kinase assay, Src; details: read-out: IC50, activity toward kinase Src
T14 construct: P1144. pET-N6 BI-PTP SRC V86-L536-X; made in house

Flt1 = target: T15, Flt1 (Homo sapiens, UniProt P17948); assay: AlphaScreen kinase assay, Flt1; details: read-out: IC50, activity toward kinase Flt1
T15 construct: P1826.pETN6 BI-PTP FLT1 M799-D1165-X WT; His6 (N); made in house; host or cells: E. coli (PTP1B co-expressed)
T15 sequence (P17948 with tags, fused parts or gaps): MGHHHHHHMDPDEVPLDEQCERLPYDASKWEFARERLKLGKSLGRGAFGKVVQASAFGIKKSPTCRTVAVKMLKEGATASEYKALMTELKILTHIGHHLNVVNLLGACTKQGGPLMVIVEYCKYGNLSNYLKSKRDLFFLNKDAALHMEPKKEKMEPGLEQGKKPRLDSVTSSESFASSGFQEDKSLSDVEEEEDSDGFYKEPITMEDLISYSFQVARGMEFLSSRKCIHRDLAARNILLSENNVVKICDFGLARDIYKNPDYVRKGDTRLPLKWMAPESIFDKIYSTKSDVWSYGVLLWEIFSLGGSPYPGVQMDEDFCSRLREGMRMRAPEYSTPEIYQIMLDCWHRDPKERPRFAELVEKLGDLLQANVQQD

Brk = Brk (Homo sapiens, UniProt Q13882); assay: AlphaScreen kinase assay, Brk; details: read-out: IC50, activity toward kinase Brk
Text: as §2, §3

Frk = Frk (Homo sapiens, UniProt P42685); assay: AlphaScreen kinase assay, Frk; details: read-out: IC50, activity toward kinase Frk
Text: as §2, §3

Plk1 = Plk1 (Homo sapiens, UniProt P53350); assay: AlphaScreen kinase assay, Plk1; details: read-out: IC50, activity toward kinase Plk1
Method in brief: as §1

Kit = target: T16, Kit (Homo sapiens, UniProt P10721); assay: AlphaScreen kinase assay, Kit; details: read-out: IC50, activity toward kinase Kit
T16 construct: P1332.N6 BI PTP KIT M552-K948-X COD; His6 (N); made in house; host or cells: E. coli (PTP1B co-expressed)

MAP4K4 = MAP4K4 (Homo sapiens, UniProt O95819); assay: AlphaScreen kinase assay, MAP4K4; details: read-out: IC50, activity toward kinase MAP4K4
Gsk3β = Gsk3β (Homo sapiens, UniProt P49841); assay: AlphaScreen kinase assay, Gsk3β; details: read-out: IC50, activity toward kinase Gsk3β
Method in brief: as §1

Measured: IC50

T9 sequence (P11362 458-765 C488A/C584S): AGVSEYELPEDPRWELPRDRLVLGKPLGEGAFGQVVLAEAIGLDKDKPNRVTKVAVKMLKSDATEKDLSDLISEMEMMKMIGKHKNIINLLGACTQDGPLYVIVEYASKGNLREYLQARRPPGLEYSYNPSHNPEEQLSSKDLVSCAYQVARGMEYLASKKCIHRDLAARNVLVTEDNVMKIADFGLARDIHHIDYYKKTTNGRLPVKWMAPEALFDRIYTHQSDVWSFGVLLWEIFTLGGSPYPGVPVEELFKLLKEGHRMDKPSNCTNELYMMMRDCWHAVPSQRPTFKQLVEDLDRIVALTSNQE
T8 sequence (P15056 with tags, fused parts or gaps V600E): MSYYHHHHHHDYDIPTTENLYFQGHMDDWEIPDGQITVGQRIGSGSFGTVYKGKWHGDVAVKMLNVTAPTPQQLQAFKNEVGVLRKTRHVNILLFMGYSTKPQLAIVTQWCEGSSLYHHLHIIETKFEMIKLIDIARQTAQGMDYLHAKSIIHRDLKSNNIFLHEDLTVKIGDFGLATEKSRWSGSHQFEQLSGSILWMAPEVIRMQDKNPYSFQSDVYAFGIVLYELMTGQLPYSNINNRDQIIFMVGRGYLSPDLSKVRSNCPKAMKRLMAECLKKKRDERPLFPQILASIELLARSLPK
T4 sequence (P04049 whole entry): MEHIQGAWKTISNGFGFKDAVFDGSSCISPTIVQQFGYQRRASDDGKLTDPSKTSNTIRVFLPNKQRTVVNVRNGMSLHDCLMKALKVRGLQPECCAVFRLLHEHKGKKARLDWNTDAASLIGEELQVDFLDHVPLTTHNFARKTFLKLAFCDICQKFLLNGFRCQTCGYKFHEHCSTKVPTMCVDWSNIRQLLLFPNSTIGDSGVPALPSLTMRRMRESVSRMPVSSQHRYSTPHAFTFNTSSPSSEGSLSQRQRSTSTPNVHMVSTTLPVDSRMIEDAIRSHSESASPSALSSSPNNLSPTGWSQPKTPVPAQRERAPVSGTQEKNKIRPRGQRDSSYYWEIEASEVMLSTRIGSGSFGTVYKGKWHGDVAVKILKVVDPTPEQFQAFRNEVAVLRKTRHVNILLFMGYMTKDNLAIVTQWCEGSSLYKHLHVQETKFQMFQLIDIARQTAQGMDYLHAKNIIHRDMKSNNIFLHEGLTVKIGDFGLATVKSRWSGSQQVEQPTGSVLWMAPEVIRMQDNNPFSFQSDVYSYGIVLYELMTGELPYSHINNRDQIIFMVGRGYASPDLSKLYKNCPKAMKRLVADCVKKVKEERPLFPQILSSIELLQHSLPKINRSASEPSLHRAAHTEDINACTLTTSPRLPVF
T10 sequence (P07333 20-972): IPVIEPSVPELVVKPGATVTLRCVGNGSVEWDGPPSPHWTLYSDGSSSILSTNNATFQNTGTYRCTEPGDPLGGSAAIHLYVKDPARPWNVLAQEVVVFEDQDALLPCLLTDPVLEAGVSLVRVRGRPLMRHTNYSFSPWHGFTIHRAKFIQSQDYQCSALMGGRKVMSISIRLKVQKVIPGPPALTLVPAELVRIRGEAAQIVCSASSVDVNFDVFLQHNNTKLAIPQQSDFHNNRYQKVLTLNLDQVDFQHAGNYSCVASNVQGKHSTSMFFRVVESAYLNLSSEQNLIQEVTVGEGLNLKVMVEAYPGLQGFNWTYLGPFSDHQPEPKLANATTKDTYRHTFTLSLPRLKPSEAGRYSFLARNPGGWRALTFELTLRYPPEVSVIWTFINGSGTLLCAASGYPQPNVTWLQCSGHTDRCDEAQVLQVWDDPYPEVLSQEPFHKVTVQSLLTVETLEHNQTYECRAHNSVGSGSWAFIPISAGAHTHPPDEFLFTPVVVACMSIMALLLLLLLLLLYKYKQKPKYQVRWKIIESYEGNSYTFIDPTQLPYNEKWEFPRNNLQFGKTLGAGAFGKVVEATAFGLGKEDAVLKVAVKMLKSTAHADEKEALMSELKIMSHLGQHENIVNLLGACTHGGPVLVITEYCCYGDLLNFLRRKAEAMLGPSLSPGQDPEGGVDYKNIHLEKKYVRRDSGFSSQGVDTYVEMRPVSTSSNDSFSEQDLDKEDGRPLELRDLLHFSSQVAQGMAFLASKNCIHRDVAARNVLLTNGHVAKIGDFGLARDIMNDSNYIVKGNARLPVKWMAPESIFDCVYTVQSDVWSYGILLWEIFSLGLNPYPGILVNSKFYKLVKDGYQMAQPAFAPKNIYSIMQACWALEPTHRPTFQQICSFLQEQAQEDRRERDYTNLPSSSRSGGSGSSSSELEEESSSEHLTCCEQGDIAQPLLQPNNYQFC
T5 sequence (P15056 whole entry): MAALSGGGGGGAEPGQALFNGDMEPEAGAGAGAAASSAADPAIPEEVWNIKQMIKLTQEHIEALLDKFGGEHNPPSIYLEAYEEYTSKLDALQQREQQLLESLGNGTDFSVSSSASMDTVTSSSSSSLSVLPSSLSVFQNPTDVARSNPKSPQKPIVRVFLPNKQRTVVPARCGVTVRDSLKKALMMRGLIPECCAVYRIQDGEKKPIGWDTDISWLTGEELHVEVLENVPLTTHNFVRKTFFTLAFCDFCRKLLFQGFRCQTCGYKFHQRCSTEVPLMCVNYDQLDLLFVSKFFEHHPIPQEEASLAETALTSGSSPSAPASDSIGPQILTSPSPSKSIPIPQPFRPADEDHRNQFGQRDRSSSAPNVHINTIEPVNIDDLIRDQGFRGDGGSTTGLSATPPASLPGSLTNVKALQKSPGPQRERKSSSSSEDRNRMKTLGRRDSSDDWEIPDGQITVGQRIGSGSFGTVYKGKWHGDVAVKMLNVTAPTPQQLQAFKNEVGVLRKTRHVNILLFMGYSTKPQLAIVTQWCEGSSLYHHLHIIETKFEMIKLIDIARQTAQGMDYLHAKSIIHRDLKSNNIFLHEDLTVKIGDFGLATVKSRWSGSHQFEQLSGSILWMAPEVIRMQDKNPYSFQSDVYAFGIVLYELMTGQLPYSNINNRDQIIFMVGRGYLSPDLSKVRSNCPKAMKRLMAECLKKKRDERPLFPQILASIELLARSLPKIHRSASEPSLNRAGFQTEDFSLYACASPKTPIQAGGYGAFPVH
T14 sequence (P12931 with tags, fused parts or gaps): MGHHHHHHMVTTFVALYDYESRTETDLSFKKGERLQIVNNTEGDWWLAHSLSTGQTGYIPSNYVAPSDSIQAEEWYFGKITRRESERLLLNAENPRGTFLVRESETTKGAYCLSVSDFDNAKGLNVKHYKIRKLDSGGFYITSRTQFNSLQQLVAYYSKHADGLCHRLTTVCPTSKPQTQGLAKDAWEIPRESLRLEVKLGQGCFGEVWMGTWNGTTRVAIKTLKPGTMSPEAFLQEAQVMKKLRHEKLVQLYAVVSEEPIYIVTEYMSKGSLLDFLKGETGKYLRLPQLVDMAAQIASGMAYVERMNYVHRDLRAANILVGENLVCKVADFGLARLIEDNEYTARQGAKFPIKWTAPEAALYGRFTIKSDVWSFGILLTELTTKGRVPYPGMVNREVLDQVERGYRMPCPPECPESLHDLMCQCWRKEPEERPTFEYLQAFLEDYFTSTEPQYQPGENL
Sequence of MAP4K4 (O95819 whole entry): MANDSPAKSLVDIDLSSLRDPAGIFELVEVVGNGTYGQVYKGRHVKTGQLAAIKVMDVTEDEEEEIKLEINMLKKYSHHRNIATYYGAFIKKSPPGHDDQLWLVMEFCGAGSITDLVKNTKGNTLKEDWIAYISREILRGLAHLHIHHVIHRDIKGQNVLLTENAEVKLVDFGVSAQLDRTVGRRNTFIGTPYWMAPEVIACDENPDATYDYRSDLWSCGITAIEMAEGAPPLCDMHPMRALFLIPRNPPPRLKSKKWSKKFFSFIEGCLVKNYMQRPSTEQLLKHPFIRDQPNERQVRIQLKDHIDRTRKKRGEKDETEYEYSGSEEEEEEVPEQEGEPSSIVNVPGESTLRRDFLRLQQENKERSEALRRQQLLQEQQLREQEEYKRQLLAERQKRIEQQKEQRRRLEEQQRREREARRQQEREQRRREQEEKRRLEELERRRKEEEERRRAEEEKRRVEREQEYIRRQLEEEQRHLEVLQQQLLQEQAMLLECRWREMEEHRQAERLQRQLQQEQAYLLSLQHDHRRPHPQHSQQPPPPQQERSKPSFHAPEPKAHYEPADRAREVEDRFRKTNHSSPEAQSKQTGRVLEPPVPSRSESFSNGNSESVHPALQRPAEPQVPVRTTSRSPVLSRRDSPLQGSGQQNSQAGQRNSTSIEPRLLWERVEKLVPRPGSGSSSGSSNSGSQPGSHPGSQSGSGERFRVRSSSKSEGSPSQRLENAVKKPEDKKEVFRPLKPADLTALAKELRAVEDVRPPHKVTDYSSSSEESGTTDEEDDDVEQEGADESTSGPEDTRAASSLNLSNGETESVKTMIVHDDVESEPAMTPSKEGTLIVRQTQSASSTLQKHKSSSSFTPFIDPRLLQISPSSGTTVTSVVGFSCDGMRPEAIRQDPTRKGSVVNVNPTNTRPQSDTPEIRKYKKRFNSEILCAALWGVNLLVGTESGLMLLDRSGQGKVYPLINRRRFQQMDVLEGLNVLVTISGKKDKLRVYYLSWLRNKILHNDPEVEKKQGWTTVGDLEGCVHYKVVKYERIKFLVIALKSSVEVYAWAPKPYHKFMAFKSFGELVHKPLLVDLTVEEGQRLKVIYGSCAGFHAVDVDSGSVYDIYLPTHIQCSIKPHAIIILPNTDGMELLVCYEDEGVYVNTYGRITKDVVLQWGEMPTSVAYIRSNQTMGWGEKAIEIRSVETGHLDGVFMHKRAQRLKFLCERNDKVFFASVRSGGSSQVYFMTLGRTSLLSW
T7 sequence (P08581 with tags, fused parts or gaps): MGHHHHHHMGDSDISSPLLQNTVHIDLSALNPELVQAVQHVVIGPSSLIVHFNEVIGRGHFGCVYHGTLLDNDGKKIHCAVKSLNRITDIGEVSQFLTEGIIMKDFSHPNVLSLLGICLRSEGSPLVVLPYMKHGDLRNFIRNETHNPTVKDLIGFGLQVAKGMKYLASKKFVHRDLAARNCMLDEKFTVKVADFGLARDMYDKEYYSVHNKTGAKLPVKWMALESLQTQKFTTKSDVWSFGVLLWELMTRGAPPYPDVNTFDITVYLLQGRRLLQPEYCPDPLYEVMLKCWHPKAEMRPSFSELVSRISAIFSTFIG

CS(=O)(=O)Nc1ccc(F)c(C(=O)c2c[nH]c3ncc(-c4cccc(C(N)=O)c4)cc23)c1 [Compound P-0228, 3-[3-(2-Fluoro-5-methanesulfonylamino-benzoyl)-1H-pyrrolo[2,3-b]pyridin-5-yl]-benzamide]
not listed: Csk | Src | Flt1 | Brk | Frk | Plk1 | Kit | MAP4K4 | Gsk3β
≤ 10 µM: all other assays above

CCCS(=O)(=O)Nc1ccc(Cl)c(C(=O)c2c[nH]c3ncc(Br)cc23)c1F [Compound P-0805, Propane-1-sulfonic acid [3-(5-bromo-1H-pyrrolo[2,3-b]pyridine-3-carbonyl)-4-chloro-2-fluoro-phenyl]-amide]
≤ 10 µM: Csk | Src | c-Raf-1 | B-Raf | B-Raf V600E | FGFR1 | Fms | Flt1 | Brk | Frk

O=C(c1c(F)ccc(NS(=O)(=O)c2ccccc2)c1F)c1c[nH]c2nccc(Cl)c12 [Compound P-0954, N-[3-(4-Chloro-1H-pyrrolo[2,3-b]pyridine-3-carbonyl)-2,4-difluoro-phenyl]-benzenesulfonamide]
≤ 10 µM: Plk1 | c-Raf-1 | Kit | B-Raf | B-Raf V600E | FGFR1 | Fms | TEC | MAP4K4

O=C(Nc1ccc(F)c(C(=O)c2c[nH]c3ncc(-c4cccnc4)cc23)c1F)NC1CCCC1 [Compound P-1317, 1-Cyclopentyl-3-[2,4-difluoro-3-(5-pyridin-3-yl-1H-pyrrolo[2,3-b]pyridine-3-carbonyl)-phenyl]-urea]
not listed: Zap70 | Jnk2 | Met | Ret | Csk | Brk | Frk | Plk1
≤ 10 µM: all other assays above
